# Laboratory results taken from publication PMC10454913, “Neurohypophysial and paracrine vasopressinergic signaling regulates aquaporin trafficking to hydrate marine teleost oocytes” (Frontiers in Endocrinology, 2023).
# Bridge positions count the residues as written; N and C are the ends. Ends that are not written are not given here.
# B1: oxytocin (Oxt, formerly isotocin), synthetic nonapeptide (peptide)
# peptide: CYISNCPIG-NH2
# modifications: disulfide 1-6; ends not checked
# B2: arginine vasopressin (Avp, formerly vasotocin), synthetic nonapeptide (peptide)
# peptide: CYIQNCPRG-NH2
# modifications: disulfide 1-6; ends not checked
# Legend:
# [1] = system: seabream postvitellogenic ovarian explants; assay: Avp production by ovarian explants in vitro (Avp ELISA); format: cell-based, gilthead seabream (Sparus aurata)
# Source text: These observations would be compatible with a role of Avp regulating the intracellular trafficking of Aqp1ab1 and Aqp1ab2 in maturing oocytes, as observed in surrogate amphibian oocytes. […] To test this hypothesis, we carried out in vitro experiments in which the production of Avp by postvitellogenic ovarian explants in response to piscine single-chain recombinant […] evaluated by a custom made Avp enzyme-linked immunosorbent assay (ELISA) ( Supplementary Figure S3 ). To investigate the specificity of the rLh potential regulation, in these experiments we also tested the effect of single-chain recombinant follicle-stimulating hormone (rFsh). […] Pieces of the ovary at the […] stage (400-500 mg) were dissected from naturally spawning seabream females and placed in Petri dishes containing 75% Leivovitz L-15 culture medium with L-glutamine and 100 μg/ml gentamicin at pH 7.5. […] Control groups were treated with an equivalent volume of the cell culture medium used for […] production, or with 0.5% ethanol. After incubation, explants were frozen and stored at -80°C until Avp extraction and determination by ELISA. To determine the Avp levels in ovarian explants incubated in vitro, a competitive ELISA was developed using the specific anti-Avp antiserum and the synthetic Avp to create the standard curve ( Supplementary Figure S3 ). For this, polystyrene ELISA microtiter plates (F96 Maxisorp Nunc Immuno Plates; […] Ovarian explants were homogenized on ice with a glass dounce tissue homogenizer in water containing 0.25% glacial acetic acid in a proportion of 500 μl/100 mg tissue. After incubation of the homogenate at 100°C for 5 min, the samples were centrifuged a 10,000 × g for 5 min at 4°C, and the supernatant recovered in a new tube. […] Absorbance was read at 450 nm with a VICTOR3TM Multilabel Plate Reader (PerkinElmer, Inc.). […] The intra-assay coefficient of variation was 4.64% (calculated by assaying eight replicates of an ovarian sample at 50% of maximum binding on the same plate), whereas the inter-assay coefficient of variation was 8.35%.
# [2] = system: X. laevis oocytes expressing the seabream Avpr1aa and Aqp1aa, Aqp1ab1 or Aqp1ab2 plus YwhazLb; assay: Swelling assay (osmotic water permeability, P f) of X. laevis oocytes expressing Avpr1aa and TSA1C aquaporins; format: cell-based
# [3] = system: X. laevis oocytes expressing the seabream Avpr2aa and Aqp1aa, Aqp1ab1 or Aqp1ab2 plus YwhazLb; assay: Swelling assay (osmotic water permeability, P f) of X. laevis oocytes expressing Avpr2aa and TSA1C aquaporins; format: cell-based
# [4] = system: seabream ovarian follicles; assay: In vitro incubation of isolated seabream ovarian follicles (immunostaining, 3H2O uptake, co-immunoprecipitation); format: cell-based, gilthead seabream (Sparus aurata); conditions: for Avp-mediated increase in phosphorylation of Aqp1ab1 and Aqp1ab2 and binding of Aqp1ab2 to YwhazLb: 10 µM inhibitor plus 10 µM Avp; for Avp-induced differential localization of Aqp1ab1 and Aqp1ab2 in the oocyte microvilli: 10 µM inhibitor preincubated prior to 10 µM Avp
# Description: To investigate the physiological significance of the Avp regulation of the […] channel trafficking in seabream oocytes, we determined the dynamics of the subcellular localization of endogenous Aqp1aa, Aqp1ab1, and Aqp1ab2, and their interactions with YwhazLa and -zLb proteins, after Avp treatment in vitro, using the Aqp1ab1- and Aqp1ab2-specific antisera and commercial mammalian YWHAZ antibodies specific for seabream YwhazLa/b or -zLb ([12]). For this, we incubated isolated seabream vitellogenic ovarian follicles with Avp, in the presence or absence of the seabream Avpr1aa and Avpr2aa antagonist TLV or the PKA inhibitor H89, while control follicles were exposed to DMSO vehicle alone ( Figure 8 ).
# In other experiments, groups of fully-grown postvitellogenic ovarian follicles (n = 10), manually isolated from the ovary, were incubated with 10 µM Avp in the same culture medium as above, in the presence or absence of 10 µM of the receptor antagonist TLV, or with 0.1% DMSO (controls) for 6 h at 18°C. After incubation, follicles were fixed for immunofluorescence microscopy, frozen in liquid nitrogen and stored at -80°C for further protein extraction, or processed for water uptake assays using radiolabeled water as previously described ([12]).
# Isolated ovarian follicles were processed for immunofluorescence microscopy as previously described ([65], [66]). Control sections were incubated with antibodies (1:400 dilution) preadsorbed with the corresponding peptides used for immunization (for aquaporin antibodies), or with the Avp or Oxt synthetic peptides. Secondary antibodies were sheep anti-rabbit IgG Cy3 (Merck #C2306) or goat anti-chicken IgY Alexa Fluor 488 (Invitrogen #A11039) at a 1:1,000 dilution. Sections were counterstained with DAPI (1:10,000), and mounted with Fluoromount™ Aqueous Mounting Medium (Merck #F4680). Immunofluorescence was observed and documented with a Zeiss Axio Imager Z1/Apotome fluorescent microscope (Carl Zeiss Corp.). Changes in Aqp1ab1 and Aqp1ab2 in the oocyte plasma membrane after Avp treatment were evaluated using the ImageJ software v.1.52o (https://imagej.nih.gov/ij/) as previously described ([12]).
# X. laevis oocytes and seabream follicles (n = 10) were homogenized in the lysis buffer from the Pierce™ Crosslink Magnetic IP/Co-IP Kit (Pierce Thermo Fisher Scientific, #88805) with a bouncer on ice, and centrifuged at 14,000 × g for 1 min. An aliquot (10%) of the protein extract was collected as “input” and mixed with 2 × Laemmli sample buffer, whereas the remaining extract was incubated overnight at 4°C under constant agitation with magnetic beads previously coated with anti-Aqp1ab1 or anti-Aqp1ab2 antibodies. For rabbit primary antibodies, the immunoprecipitation was carried out using the kit indicated above, and final eluted proteins in 50 µl of elution buffer were mixed with 4 × Laemmli sample buffer supplemented with protease and phosphatase inhibitors. For chicken antibodies, the immunoprecipitation was performed using Dynabeads™ M-280 Tosylactivated (Invitrogen Thermo Fisher Scientific, #14203) following the manufacturer’s instructions. The input and immunoprecipitated samples were immunoblotted as indicated above.
# [5] = system: seabream Avpr2aa; assay: Activation of seabream Avpr2aa in transfected HEK293T cells (pCRE-luc / pSRE-luc reporters, Fluo-4 AM Ca2+); format: cell-based, gilthead seabream (Sparus aurata); conditions: for effect on Avpr2aa activation: antagonist 10^-12 to 10^-5 M before 10^-8 M Avp
# [6] = biological target: seabream Avpr1aa (Sparus aurata, UniProt R9X0I6); assay: Activation of seabream Avpr1aa in transfected HEK293T cells (pCRE-luc / pSRE-luc reporters, Fluo-4 AM Ca2+); format: cell-based, gilthead seabream (Sparus aurata); conditions: for IC50: antagonist 1 h before 10^-8 M Avp, HEK293T, read-out: IC50, inhibition of Avpr1aa activation
# [7] = biological target: seabream Oxtrb (Sparus aurata, UniProt R9WVY7); assay: Activation of seabream Oxtrb in transfected HEK293T cells (pCRE-luc / pSRE-luc reporters, Fluo-4 AM Ca2+); format: cell-based, gilthead seabream (Sparus aurata); conditions: for effect on Oxtrb activation: antagonist 10^-12 to 10^-5 M before 10^-8 M Oxt
# [8] = biological target: seabream arginine vasopressin receptor Avpr1aa (gilthead seabream (Sparus aurata))
# [9] = biological target: seabream oxytocin receptor Oxtrb (gilthead seabream (Sparus aurata))
# [10] = biological target: seabream arginine vasopressin receptor Avpr1aa (gilthead seabream (Sparus aurata)); remark: listed apart in the source
# [11] = 10 µM Avp, co-immunoprecipitation and immunoblotting
molecule,measurement,setting,value
"C[C@@H](O)[C@@]1(O)CC[C@H]2[C@@H]3CCC4=CC(=O)CC[C@]4(C)[C@H]3CC[C@@]21C [17,20β-P, 17α,20β-dihydroxypregn-4-en-3-one]",increase in Avp synthesis in ovarian explants,"[1]; 0.1 µg/ml, ~20 h",3 fold
"CN1CCCC1CCn1cc(C2=C(c3c[nH]c4ccccc34)C(=O)NC2=O)c2ccccc21 (centres unmarked) [Bim-II, bisindolylmaleimide II]",Avp-induced inhibition of P f,[2]; Avpr1aa+Aqp1aa oocytes preincubated with 10 µM inhibitor 1 h before 10 µM Avp,prevented
O=S(=O)(NCCNC/C=C/c1ccc(Br)cc1)c1cccc2cnccc12 [H89],positive effect of Avp on plasma membrane trafficking of wild-type Aqp1ab1 and Aqp1ab1-S156A,[3],equally abolished
same,Avp-induced insertion of Aqp1ab1 or Aqp1ab2 into the oocyte plasma membrane / P f increase,"[3]; Avpr2aa oocytes, 10 µM inhibitor 1 h before 10 µM Avp",prevented
same,Avp-mediated increase in phosphorylation of Aqp1ab1 and Aqp1ab2 and binding of Aqp1ab2 to YwhazLb,[4],blocked
same,Avp-induced differential localization of Aqp1ab1 and Aqp1ab2 in the oocyte microvilli,[4],prevented
same,water permeability of follicles (3H2O uptake) in the presence of Avp plus inhibitor,[4]; not told,reduced
"COc1cc(OC2CCN(C(C)=O)CC2)ccc1C(=O)N1CCC(N2C(=O)OCc3ccccc32)CC1 [L-371,257, 1-(1-[4-[(N-acetyl-4-piperidinyl)oxy]-2-methoxybenzoyl]piperidin-4-yl)-4H-3,1-benzoxazin-2(1H)-one]",effect on Avpr2aa activation,[5],no effect
"C=C[C@]12CCC(=O)C=C1CC[C@H]1[C@@H]3CC[C@H](C(C)=O)[C@@]3(C)CC[C@@H]12 [OD 02-0, 10-ethenyl-19-norprogesterone]","Avp synthesis in ovarian explants in the absence of 17,20β-P","[1]; 10 µM, ~20 h",not reproduced
CC#C[C@]1(O)CC[C@H]2[C@@H]3CCC4=CC(=O)CCC4=C3[C@@H](c3ccc(N(C)C)cc3)C[C@@]21C [RU486],"17,20β-P-induced increase in Avp synthesis","[1]; 100 µM inhibitor with 0.1 µg/ml 17,20β-P",completely abolished
COc1ccc(S(=O)(=O)N2c3ccc(Cl)cc3[C@](O)(c3ccccc3Cl)[C@@H]2C(=O)N2CCC[C@H]2C(N)=O)cc1OC [SR49059],IC50,[6],~1 nM
same,effect on Avpr2aa activation,[5],inhibited
same,effect on Oxtrb activation,[7],not affected
"Cc1ccccc1C(=O)Nc1ccc(C(=O)N2CCCC(O)c3cc(Cl)ccc32)c(C)c1 (centres unmarked) [TLV, 7-Chloro-5-hydroxy-1-[2-methyl-4-(2-methylbenzoyl-amino)benzoyl]-2,3,4,5-tetrahydro-1H-1-benzazepine]",IC50,[6],~1 nM
same,effect on Avpr2aa activation,[5],inhibited
same,potency at blocking Avpr2aa relative to SR49059,[5]; antagonist before 10^-8 M Avp,~ 10 times more potent
same,effect on Oxtrb activation,[7],not affected
same,water permeability of follicles (3H2O uptake) in the presence of Avp plus inhibitor,[4]; 10 µM Avp plus 10 µM inhibitor,reduced
same,Avp-mediated increase in phosphorylation of Aqp1ab1 and Aqp1ab2 and binding of Aqp1ab2 to YwhazLb,[4],blocked
same,Avp-induced differential localization of Aqp1ab1 and Aqp1ab2 in the oocyte microvilli,[4],prevented
CYIQNCPRG-NH2 (ends and bridges not checked) [Avp],pCRE-mediated luciferase activity (cAMP),[6]; HEK293T cells expressing Avpr1aa,did not induce measurable increases
same,pSRE-induced luciferase activity (PKC activation),"[6]; HEK293T cells expressing Avpr1aa, 10^-12 to 10^-5 M, 3 h",concentration-dependent increase
same,intracellular Ca2+ concentration ([Ca2+]i),"[6]; HEK293T cells expressing Avpr1aa, Fluo-4 AM",concentration-dependent increase
same,EC50,"[5]; Avp on Avpr2aa, HEK293T, read-out: approximate EC50 on cognate receptor",~10 nM
same,PKC activation (pSRE-luc),[5]; HEK293T cells expressing Avpr2aa,not activated
same,pCRE-induced luciferase activity (cAMP),"[5]; HEK293T cells expressing Avpr2aa, 10^-12 to 10^-5 M",potent dose-dependent response
same,intracellular Ca2+ concentration ([Ca2+]i),"[5]; HEK293T cells expressing Avpr2aa, Fluo-4 AM",not affected
same,intracellular Ca2+ concentration ([Ca2+]i),"[7]; HEK293T cells expressing Oxtrb, Fluo-4 AM",only a slight increase
same,reduction of P f,"[2]; oocytes expressing Avpr1aa + Aqp1aa, 10 µM Avp, 3 h",80%
same,oocyte P f triggered by FSK exposure,"[2]; oocytes expressing Avpr1aa + Aqp1ab2 (+YwhazLb), 10 µM Avp, 10 µM FSK",did not affect
same,P f,"[3]; oocytes co-expressing Avpr2aa and Aqp1aa, 10 µM Avp",did not change
same,increase in P f,"[3]; oocytes expressing Avpr2aa + Aqp1ab1, 10 µM Avp",~ 2 fold
same,increase in P f,"[3]; oocytes expressing Avpr2aa + Aqp1ab2+YwhazLb, without FSK pretreatment, 10 µM Avp",~ 4 fold
same,meiotic maturation or oocyte hydration,"[4]; 10 µM Avp, 6 h, 18°C",did not induce
same,phosphorylation of Aqp1ab1,[4]; [11],more phosphorylated
same,phosphorylation of Aqp1ab2,[4]; [11],increased
same,localization of Aqp1aa (follicular epithelium),"[4]; 10 µM Avp, immunofluorescence",did not appear to change
same,localization of Aqp1ab1 immunoreactivity,"[4]; 10 µM Avp, immunofluorescence",more concentrated in the most distal part of the microvilli
same,localization of Aqp1ab2 channel,"[4]; 10 µM Avp, immunofluorescence",localized in a more basal region of the microvilli
same,water permeability of follicles (3H2O uptake),[4]; not told,higher
B1,"EC50 of cross-activation of Avpr1aa by Oxt in HEK293T cells (Figure 4D), against that of Avp (fold (EC50 of Oxt over EC50 of Avp))",[8],10
same,"EC50 of receptor activation (pSRE-luciferase activity and [Ca2+]i) in HEK293T cells expressing Oxtrb, Oxt 10^-12 to 10^-5 M",[9],1e-08 M
B2,"EC50 of PKC (pSRE-luciferase) activation and [Ca2+]i increase in HEK293T cells, Avp on Avpr1aa against Oxt on Oxtrb",[8]; scale: fold,10
same,"EC50 of receptor activation (pSRE-luciferase activity and [Ca2+]i) in HEK293T cells expressing Avpr1aa, Avp 10^-12 to 10^-5 M",[10],1e-08 M
